Test results published in patent publication US4510150A, “Pharmaceutical compositions effective against coronary heart disease and hypertension” (Sandoz Ltd., priority 1980, dated 1985).

How the values were obtained:
[1] = molecular target: T1, calcium-induced contraction of isolated dog coronary arteries (Canis lupus familiaris, UniProt A0A8I3QY31); assay: calcium antagonism: calcium-induced contraction of isolated dog coronary arteries in depolarizing solution; assay type: cell-based; conditions: helical strips of dog coronary artery, 100 mM KCl solution, cumulative CaCl2 response curves, drug added 30 min before CaCl2; read-out: pA2 of calcium antagonism (converted)
T1 construct: Branches of the ventral interventricular artery (about 500 to 1000 μm outer diameter) were dissected and cut into helical strips; from tissue; host or cells: helical strips of branches of the ventral interventricular (coronary) artery of mongrel dogs
Experimental: First the potency of calcium antagonism was determined on coronary arteries in vitro:
Mongrel dogs of either sex weighing between 15 and 30 kg were anaesthetized by rapid i.v. injection of pentobarbitone (50 mg/kg) and killed by i.v. injection of 100 ml of air. The heart was removed and placed in a modified Krebs-Henseleit solution (mM): NaCl 118, KCl 4.7, MgSo4 1.2, CaCl2 2.5, KH2 PO4 1.2, NaHCO3 25, glucose 11, at 37° C., gassed with 95% O2 -5% CO2. Branches of the ventral interventricular artery (about 500 to 1000 μm outer diameter) were dissected and cut into helical strips, approximately 1 to 3 mm wide and 10 mm long.
The strips were suspended in 10 ml organ baths containing Krebs-Henseleit solution at 37° C. gassed continuously with 5% CO2 in oxygen. Changes in the tension of the strips were recorded isometrically with electromechanical transducers (Statham model UC 3) and a potentiometric recorder. At the beginning of the experiments the strips were stretched to an initial tension of 500 mg and then allowed to equilibrate for 120 to 180 minutes in the bathing medium. Thereafter the Krebs-Henseleit solution was replaced by a solution containing 100 mM KCl in equimolar replacement for NaCl. Cumulative response curves for CaCl2 were established, using the method described by Van Rossum, J. M., Arch. […] The effects were expressed as percentage of the preceding response to […]. […]

[2] = system: paced guinea pig left atrium; assay: contractility of paced guinea pig left atria in vitro; assay type: cell-based; conditions: for difference between cardiodepressant concentration and the pA2 of Ca-antagonism: guinea pig atria concentration vs dog coronary artery pA2
Experimental: (§1) Then the effects on contractility of paced guinea pig left […] in vitro was measured:
(§2) Guinea pigs of either sex weighing 250 to 400 g were killed by a blow on their heads and the left atrium was rapidly dissected from the heart and suspended in a modified oxygenated Tyrode solution at 30° C. The preload was adjusted to 1 g, rectangular impulses of 10 msec. at a rate of 1 Hz were used for pacing through a platinum cathode attached to the lower end of the tissue. The tension developed was measured isometrically with a Statham UC 3 transducer.

[3] = molecular target: T2, paced guinea pig left atrium (Cavia porcellus, UniProt O35505); assay: as above; assay type: cell-based; conditions: guinea pig; highest dose 0.444 μM; paced 1 Hz, 30° C.; read-out: contractile force, % of its baseline value
T2 construct: the left atrium was rapidly dissected from the heart and suspended in a modified oxygenated Tyrode solution; from tissue; host or cells: isolated left atrium of guinea pig
Experimental: as §1, §2

[4] = system: anaesthetized open chest cat; assay: hemodynamics in the anaesthetized open chest cat (microsphere method); assay type: in vivo
Experimental: This observation was arrived at in the anaesthetized open chest cat as follows:
The microsphere method as described in 1967 by Rudolph, A. M. and Heymann, M. S. in Circ. Res. 21 (1967) 163 and modified by R. P. Hof, F. Wyler and G. Stalder, Basic Res. Cardial. 75, 747-756 (1980) was used. Cardiac output was calculated from the flow signal of an electromagnetic flow meter. […] This consists in sampling blood at a known flow rate into a syringe, which can be regarded as "an external organ".
This sampling is done during the time of microsphere circulation. The number of microspheres in the syringe is then determined and cardiac output can be calculated as follows:
where CO is cardiac output, Qs is flow to the syringe, Ni is the number of spheres injected and Ns is the number of spheres in the syringe.
Cats of 2 to 4 kg of body weight were anaesthetized with chloralose urethane (43 and 430 mg/kg) and ventilated with a Loosco M.K.II infant ventilator with positive end-expiratory pressure. Catheters were inserted into the femoral artery and vein. […] The electromagnetic flow signal and its first derivative, acceleration of the blood in the aorta, mean aortic flow, phasic and mean aortic blood pressure, heart rate and mean right atrial pressure were recorded on a Beckmann R612 8 channel recorder. […] The samples were counted in a Packard Mod. […]

[5] = system: β-adrenoceptor; assay: adequacy of betablockade checked with isoproterenol test dose in the anaesthetized open chest cat; assay type: in vivo; conditions: LT 50 μg/kg i.v.; isoproterenol 0.05 μg/kg before, 0.1 μg/kg after betablockade
Experimental: Cats of 2 to 4 kg of body weight were anaesthetized with chloralose urethane (43 and 430 mg/kg) and ventilated with a Loosco M.K.II infant ventilator with positive end-expiratory pressure. Catheters were inserted into the femoral artery and vein. The thorax was opened through the left fourth intercostal space, the aorta was freed of its adventitia and an electromagnetic flow probe was placed around it. The electromagnetic flow signal and its first derivative, acceleration of the blood in the aorta, mean aortic flow, phasic and mean aortic blood pressure, heart rate and mean right atrial pressure were recorded on a Beckmann R612 8 channel recorder. For flow measurements a Narco RT500 flowmeter was used. Differentiation was performed by a HSE 401 differentiator. The flow signal, which is a measurement of the velocity of blood in the aortic root was electronically integrated to obtain mean aortic flow. At the same time this signal was fed into the differentiator mentioned. The output of the differentiator, acceleration of blood in the aorta, is an indicator of myocardial function and was used instead of dp/dt (R. R. Rushmer, Circulation 29 [1964] 268, G. C. Van den Bos et al., Cardiovascular Research 7 [1973] 834), applied to cats by R. P. Hof and A. Hof, Journal of Pharmacological Methods, accepted for publication in 1981. […] The samples were counted in a Packard Mod. […]

T1 sequence (A0A8I3QY31 1-2188): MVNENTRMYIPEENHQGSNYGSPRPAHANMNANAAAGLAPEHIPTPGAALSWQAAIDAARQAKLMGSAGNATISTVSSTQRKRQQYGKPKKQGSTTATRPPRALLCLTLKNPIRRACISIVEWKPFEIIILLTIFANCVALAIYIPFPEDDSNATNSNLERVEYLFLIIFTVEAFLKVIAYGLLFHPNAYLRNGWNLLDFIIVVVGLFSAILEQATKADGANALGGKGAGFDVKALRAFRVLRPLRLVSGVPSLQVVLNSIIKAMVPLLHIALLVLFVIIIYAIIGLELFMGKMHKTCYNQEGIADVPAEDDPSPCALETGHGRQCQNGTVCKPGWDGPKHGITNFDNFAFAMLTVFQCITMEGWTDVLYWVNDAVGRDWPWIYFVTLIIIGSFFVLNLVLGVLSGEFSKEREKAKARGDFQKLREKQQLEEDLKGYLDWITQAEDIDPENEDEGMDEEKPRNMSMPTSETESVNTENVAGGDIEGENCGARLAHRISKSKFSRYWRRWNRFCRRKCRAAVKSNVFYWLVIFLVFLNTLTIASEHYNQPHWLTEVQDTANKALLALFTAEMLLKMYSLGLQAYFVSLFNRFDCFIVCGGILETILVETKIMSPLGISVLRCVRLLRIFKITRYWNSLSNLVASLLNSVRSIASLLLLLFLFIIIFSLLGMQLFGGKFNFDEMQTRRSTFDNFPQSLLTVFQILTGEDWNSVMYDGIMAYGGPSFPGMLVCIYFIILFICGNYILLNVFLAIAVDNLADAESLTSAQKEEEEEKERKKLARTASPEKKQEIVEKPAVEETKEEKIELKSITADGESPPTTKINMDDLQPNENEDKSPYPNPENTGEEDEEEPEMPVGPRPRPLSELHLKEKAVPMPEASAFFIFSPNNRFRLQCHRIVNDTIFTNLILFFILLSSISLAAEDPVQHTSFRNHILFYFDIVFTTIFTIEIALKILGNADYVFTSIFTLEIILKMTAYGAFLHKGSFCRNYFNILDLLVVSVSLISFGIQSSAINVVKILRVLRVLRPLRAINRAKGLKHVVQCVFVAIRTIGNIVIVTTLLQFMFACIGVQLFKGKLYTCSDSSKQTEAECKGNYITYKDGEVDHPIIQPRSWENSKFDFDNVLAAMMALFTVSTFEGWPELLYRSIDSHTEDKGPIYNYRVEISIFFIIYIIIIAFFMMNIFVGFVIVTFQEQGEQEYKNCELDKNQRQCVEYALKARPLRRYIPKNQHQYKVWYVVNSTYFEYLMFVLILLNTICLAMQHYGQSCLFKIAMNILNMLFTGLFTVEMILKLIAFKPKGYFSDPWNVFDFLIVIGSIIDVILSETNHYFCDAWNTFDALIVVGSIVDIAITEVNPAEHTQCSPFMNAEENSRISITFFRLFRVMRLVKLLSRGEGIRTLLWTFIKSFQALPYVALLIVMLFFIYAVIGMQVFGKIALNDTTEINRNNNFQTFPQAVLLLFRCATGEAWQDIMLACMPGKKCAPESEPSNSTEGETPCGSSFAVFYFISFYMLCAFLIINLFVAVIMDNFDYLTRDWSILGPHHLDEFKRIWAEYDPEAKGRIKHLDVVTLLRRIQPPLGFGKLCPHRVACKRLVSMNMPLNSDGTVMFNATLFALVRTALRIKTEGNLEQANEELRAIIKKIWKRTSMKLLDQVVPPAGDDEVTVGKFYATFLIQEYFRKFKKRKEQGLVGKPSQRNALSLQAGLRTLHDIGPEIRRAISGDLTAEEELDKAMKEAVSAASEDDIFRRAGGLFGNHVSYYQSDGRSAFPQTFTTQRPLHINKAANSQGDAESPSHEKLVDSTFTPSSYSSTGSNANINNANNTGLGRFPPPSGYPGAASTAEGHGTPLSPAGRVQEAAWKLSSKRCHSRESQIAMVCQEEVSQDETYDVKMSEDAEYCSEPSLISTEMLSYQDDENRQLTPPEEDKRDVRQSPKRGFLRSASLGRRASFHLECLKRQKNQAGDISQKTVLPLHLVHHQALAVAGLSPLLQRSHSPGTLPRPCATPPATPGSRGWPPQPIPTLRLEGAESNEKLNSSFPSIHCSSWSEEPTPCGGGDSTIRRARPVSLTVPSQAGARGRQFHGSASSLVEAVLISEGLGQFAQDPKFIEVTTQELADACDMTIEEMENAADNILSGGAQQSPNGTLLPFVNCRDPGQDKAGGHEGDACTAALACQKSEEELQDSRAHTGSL
T2 sequence (O35505 whole entry): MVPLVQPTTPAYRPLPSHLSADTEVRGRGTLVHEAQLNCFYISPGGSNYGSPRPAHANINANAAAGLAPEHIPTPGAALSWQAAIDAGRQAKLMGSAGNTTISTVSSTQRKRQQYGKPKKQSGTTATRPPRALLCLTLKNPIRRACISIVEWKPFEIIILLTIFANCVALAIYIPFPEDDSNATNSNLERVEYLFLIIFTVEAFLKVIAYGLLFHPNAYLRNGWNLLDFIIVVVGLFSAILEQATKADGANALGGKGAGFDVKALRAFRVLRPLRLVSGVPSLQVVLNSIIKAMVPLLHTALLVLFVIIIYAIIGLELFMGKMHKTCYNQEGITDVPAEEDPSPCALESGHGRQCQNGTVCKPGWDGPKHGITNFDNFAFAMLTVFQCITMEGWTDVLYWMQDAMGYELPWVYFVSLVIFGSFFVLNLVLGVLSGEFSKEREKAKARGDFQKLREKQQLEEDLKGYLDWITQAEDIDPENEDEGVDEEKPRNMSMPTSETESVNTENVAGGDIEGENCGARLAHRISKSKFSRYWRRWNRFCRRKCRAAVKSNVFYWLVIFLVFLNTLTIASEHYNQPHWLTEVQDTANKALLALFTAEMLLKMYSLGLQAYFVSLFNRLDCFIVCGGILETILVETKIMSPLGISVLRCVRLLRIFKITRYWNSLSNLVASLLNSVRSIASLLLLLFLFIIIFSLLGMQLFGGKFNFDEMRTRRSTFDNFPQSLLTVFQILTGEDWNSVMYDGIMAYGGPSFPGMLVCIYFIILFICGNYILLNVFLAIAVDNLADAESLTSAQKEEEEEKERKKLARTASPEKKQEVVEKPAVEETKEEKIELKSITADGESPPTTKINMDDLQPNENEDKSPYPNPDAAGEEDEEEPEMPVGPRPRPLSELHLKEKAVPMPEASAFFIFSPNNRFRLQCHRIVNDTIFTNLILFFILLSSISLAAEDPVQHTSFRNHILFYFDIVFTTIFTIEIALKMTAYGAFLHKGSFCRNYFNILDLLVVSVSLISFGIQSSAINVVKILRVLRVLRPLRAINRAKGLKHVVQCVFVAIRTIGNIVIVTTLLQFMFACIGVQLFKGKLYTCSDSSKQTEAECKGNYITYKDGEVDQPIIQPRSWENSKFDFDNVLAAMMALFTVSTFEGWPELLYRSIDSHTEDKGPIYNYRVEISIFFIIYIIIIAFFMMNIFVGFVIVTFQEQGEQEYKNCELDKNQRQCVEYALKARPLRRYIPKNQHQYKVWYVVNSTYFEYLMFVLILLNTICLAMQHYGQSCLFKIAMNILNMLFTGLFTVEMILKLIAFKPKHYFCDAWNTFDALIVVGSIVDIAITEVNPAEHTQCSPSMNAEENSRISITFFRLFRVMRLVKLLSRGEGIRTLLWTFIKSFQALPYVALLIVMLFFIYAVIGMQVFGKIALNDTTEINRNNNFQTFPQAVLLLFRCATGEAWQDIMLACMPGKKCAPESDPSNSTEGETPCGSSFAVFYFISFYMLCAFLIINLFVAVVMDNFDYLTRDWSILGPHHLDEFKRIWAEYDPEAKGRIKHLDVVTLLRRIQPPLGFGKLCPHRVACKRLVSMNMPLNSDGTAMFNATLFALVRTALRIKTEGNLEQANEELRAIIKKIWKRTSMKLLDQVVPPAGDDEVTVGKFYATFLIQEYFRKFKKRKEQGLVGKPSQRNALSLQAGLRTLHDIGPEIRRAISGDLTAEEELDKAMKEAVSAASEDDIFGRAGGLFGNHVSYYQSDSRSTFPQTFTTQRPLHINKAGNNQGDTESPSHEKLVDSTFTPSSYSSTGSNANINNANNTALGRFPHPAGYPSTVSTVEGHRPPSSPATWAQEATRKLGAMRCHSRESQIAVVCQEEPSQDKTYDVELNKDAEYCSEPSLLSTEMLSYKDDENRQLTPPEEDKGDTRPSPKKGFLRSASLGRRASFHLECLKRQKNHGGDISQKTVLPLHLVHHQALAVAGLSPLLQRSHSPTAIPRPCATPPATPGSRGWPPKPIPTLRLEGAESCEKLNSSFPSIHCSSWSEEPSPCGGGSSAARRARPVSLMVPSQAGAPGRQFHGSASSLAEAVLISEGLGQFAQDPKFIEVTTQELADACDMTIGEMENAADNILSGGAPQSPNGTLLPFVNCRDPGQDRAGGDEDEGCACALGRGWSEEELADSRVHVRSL

SMILES	Kb [1] [nM]	difference between cardiodepressant concentration and the pA2 of Ca-antagonism [2]	activity at 0.444 µM [3] [%]	times less cardiodepressant than Verapamil for a similar degree of calcium antagonism ([2]; relative to Verapamil)	coronary blood flow ([4]; 43 μg/kg i.v., no pretreatment)	general hemodynamic parameters (acceleration of blood, cardiac output, heart rate, coronary flow) after β-blocker pretreatment ([4]; compound No. 22 43 μg/kg i.v., 60 minutes after LT 50 μg/kg i.v.)	suppression of isoproterenol effects [5]
COc1ccc(CCN(C)CCCC(C#N)(c2ccc(OC)c(OC)c2)C(C)C)cc1OC (stereo not drawn) [Verapamil, reference compound]	15.8	about 100 fold	–	–	–	–	–
CCOC(=O)C1=C(C)NC(C)=C(C(=O)OCC)C1c1cccc2nonc12 [compound No. 22]	0.0316	about 10,000 fold	56	about 100 times	markedly increased	strikingly similar to those without pretreatment	–
Cc1cc2c(OCC(CNC(C)(C)C)OC(=O)c3ccccc3)cccc2[nH]1 (stereo not drawn) [LT, 4-(2-benzoyloxy-3-tert-butylaminopropoxy)-2-methylindole]	–	–	–	–	–	–	completely or almost completely suppressed
